In ChEMBL document CHEMBL1201862, “PubChem BioAssay data set” (2004):
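Grown in 96-well plates, cells were treated for 48 hours with each compound at five concentrations. Insufficient inhibition: endpoint recorded as highest concentration tested. Abbreviation: GI50, concentration required for 50% inhibition of growth.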 Activity calls are given as the source filed them. No stated cut-off is given here; in the data, active = GI50 up to about 1.1 µM and inactive = higher.

Assays:
Experiment in all cases: NCI-60 cell line screen, 48 h
SN12C = tested on: SN12C
Malme-3M = tested on: Malme-3M
HCC 2998 = tested on: HCC 2998
UO-31 = tested on: UO-31
SNB-19 = tested on: SNB-19
NCI-H23 = tested on: NCI-H23
SK-MEL-28 = tested on: SK-MEL-28
NCI-H522 = tested on: NCI-H522
KM12 = tested on: KM12
SK-MEL-5 = tested on: SK-MEL-5
IGROV-1 = tested on: IGROV-1
RXF 393 = tested on: RXF 393
M19-MEL = tested on: M19-MEL
OVCAR-5 = tested on: OVCAR-5
CCRF-CEM = tested on: CCRF-CEM
M14 = tested on: M14
HT-29 = tested on: HT-29
ACHN = tested on: ACHN
HCT-15 = tested on: HCT-15
DMS-273 = tested on: DMS-273
SK-OV-3 = tested on: SK-OV-3
LOX IMVI = tested on: LOX IMVI
A549 = tested on: A549
OVCAR-4 = tested on: OVCAR-4
NCI-H460 = tested on: NCI-H460
HOP-62 = tested on: HOP-62
K562 = tested on: K562
U-251 = tested on: U-251
SK-MEL-2 = tested on: SK-MEL-2
EKVX = tested on: EKVX
HOP-92 = tested on: HOP-92
COLO 205 = tested on: COLO 205
SF-268 = tested on: SF-268
HCT-116 = tested on: HCT-116
UACC-62 = tested on: UACC-62
OVCAR-8 = tested on: OVCAR-8
HL-60 = tested on: HL-60
TK-10 = tested on: TK-10
XF498 = tested on: XF498
LXFL 529 = tested on: LXFL 529
UACC-257 = tested on: UACC-257
MOLT-4 = tested on: MOLT-4
KM-20L2 = tested on: KM-20L2
SW-620 = tested on: SW-620
SF-295 = tested on: SF-295
DLD-1 = tested on: DLD-1
RPMI-8226 = tested on: RPMI-8226
DMS-114 = tested on: DMS-114
A498 = tested on: A498
SR = tested on: SR
SNB-75 = tested on: SNB-75
CAKI-1 = tested on: CAKI-1
786-0 = tested on: 786-0
OVCAR-3 = tested on: OVCAR-3
SF-539 = tested on: SF-539
SNB-78 = tested on: SNB-78
NCI-H226 = tested on: NCI-H226

`CSc1nc2[nH]c(=O)c(C)nc2c(=O)[nH]1` was tested, and the GI50 (SN12C) was > 100 µM (inactive), the GI50 (Malme-3M) was > 100 µM (inactive) and the GI50 (HCC 2998) was > 100 µM (inactive). The GI50 (UO-31) was > 100 µM (inactive), the GI50 (SNB-19) was > 100 µM (inactive) and the GI50 (NCI-H23) was > 100 µM (inactive). For the same compound, the GI50 (SK-MEL-28) was > 100 µM (inactive), the GI50 (NCI-H522) was > 100 µM (inactive) and the GI50 (KM12) was > 100 µM (inactive). The GI50 (SK-MEL-5) was > 100 µM (inactive), the GI50 (IGROV-1) was > 100 µM (inactive) and the GI50 (RXF 393) was > 100 µM (inactive). For the same compound, the GI50 (M19-MEL) was > 100 µM (inactive), the GI50 (OVCAR-5) was > 100 µM (inactive) and the GI50 (CCRF-CEM) was > 100 µM (inactive). The GI50 (M14) was > 100 µM (inactive), the GI50 (HT-29) was > 100 µM (inactive) and the GI50 (ACHN) was > 100 µM (inactive). For the same compound, the GI50 (HCT-15) was > 100 µM, the GI50 (DMS-273) was > 100 µM (inactive) and the GI50 (SK-OV-3) was > 100 µM (inactive). For the same compound, the GI50 (LOX IMVI) was > 100 µM (inactive), the GI50 (A549) was > 100 µM (inactive) and the GI50 (OVCAR-4) was > 100 µM (inactive). For the same compound, the GI50 (NCI-H460) was > 100 µM (inactive), the GI50 (HOP-62) was > 100 µM (inactive) and the GI50 (K562) was > 100 µM (inactive). For the same compound, the GI50 (U-251) was > 100 µM (inactive), the GI50 (SK-MEL-2) was > 100 µM (inactive) and the GI50 (EKVX) was > 100 µM (inactive). For the same compound, the GI50 (HOP-92) was > 100 µM (inactive), the GI50 (COLO 205) was > 100 µM (inactive) and the GI50 (SF-268) was > 100 µM (inactive). For the same compound, the GI50 (HCT-116) was > 100 µM (inactive), the GI50 (UACC-62) was > 100 µM (inactive) and the GI50 (OVCAR-8) was > 100 µM (inactive). The GI50 (HL-60) was > 100 µM (inactive), the GI50 (TK-10) was > 100 µM (inactive) and the GI50 (XF498) was > 100 µM (inactive). For the same compound, the GI50 (LXFL 529) was > 100 µM (inactive), the GI50 (UACC-257) was > 100 µM (inactive) and the GI50 (MOLT-4) was > 100 µM (inactive). For the same compound, the GI50 (KM-20L2) was > 100 µM (inactive), the GI50 (SW-620) was > 100 µM (inactive) and the GI50 (SF-295) was > 100 µM (inactive). For the same compound, the GI50 (DLD-1) was > 100 µM (inactive), the GI50 (RPMI-8226) was > 100 µM (inactive) and the GI50 (DMS-114) was > 100 µM (inactive). For the same compound, the GI50 (A498) was > 100 µM (inactive), the GI50 (SR) was > 100 µM (inactive) and the GI50 (SNB-75) was > 100 µM (inactive). The GI50 (CAKI-1) was > 100 µM (inactive), the GI50 (786-0) was > 100 µM (inactive) and the GI50 (OVCAR-3) was > 100 µM (inactive).
For `CC(=O)OCC(OC(C)=O)C(OC(C)=O)C(OC(C)=O)C(=O)CNn1c(-c2ccccc2Cl)nc2ccc(Br)cc2c1=O` (configuration not stated), the GI50 (SN12C) was 36.3 µM (inactive), the GI50 (Malme-3M) was > 100 µM (inactive) and the GI50 (UO-31) was 85.5 µM (inactive). The GI50 (SNB-19) was 81.1 µM (inactive), the GI50 (NCI-H23) was > 100 µM (inactive) and the GI50 (SK-MEL-28) was > 100 µM (inactive). For the same compound, the GI50 (NCI-H522) was 33.2 µM (inactive), the GI50 (KM12) was > 100 µM (inactive) and the GI50 (SK-MEL-5) was 57.5 µM (inactive). The GI50 (RXF 393) was 67 µM (inactive), the GI50 (M19-MEL) was > 100 µM (inactive) and the GI50 (SF-539) was > 100 µM (inactive). The GI50 (OVCAR-5) was > 100 µM (inactive), the GI50 (CCRF-CEM) was 42.5 µM (inactive) and the GI50 (M14) was > 100 µM (inactive). The GI50 (HT-29) was 96.4 µM (inactive), the GI50 (ACHN) was > 100 µM (inactive) and the GI50 (HCT-15) was 78.7 µM. For the same compound, the GI50 (DMS-273) was 56.5 µM (inactive), the GI50 (SK-OV-3) was > 100 µM (inactive) and the GI50 (LOX IMVI) was 82 µM (inactive). For the same compound, the GI50 (A549) was > 100 µM (inactive), the GI50 (OVCAR-4) was 87.1 µM (inactive) and the GI50 (NCI-H460) was > 100 µM (inactive). For the same compound, the GI50 (HOP-62) was > 100 µM (inactive), the GI50 (K562) was 44 µM (inactive) and the GI50 (U-251) was 87.9 µM (inactive). The GI50 (SK-MEL-2) was > 100 µM (inactive), the GI50 (EKVX) was > 100 µM (inactive) and the GI50 (COLO 205) was > 100 µM (inactive). For the same compound, the GI50 (SF-268) was > 100 µM (inactive), the GI50 (HCT-116) was > 100 µM (inactive) and the GI50 (UACC-62) was 30.6 µM (inactive). For the same compound, the GI50 (OVCAR-8) was 76.9 µM (inactive), the GI50 (HL-60) was 23.8 µM (inactive) and the GI50 (XF498) was 15.5 µM (inactive). The GI50 (LXFL 529) was 36.9 µM (inactive), the GI50 (UACC-257) was > 100 µM (inactive) and the GI50 (SNB-78) was 65.6 µM (inactive). The GI50 (MOLT-4) was 34.6 µM (inactive), the GI50 (KM-20L2) was > 100 µM (inactive) and the GI50 (SW-620) was > 100 µM (inactive). The GI50 (SF-295) was > 100 µM (inactive), the GI50 (RPMI-8226) was 27 µM (inactive) and the GI50 (DMS-114) was 30.4 µM (inactive). For the same compound, the GI50 (A498) was 55.7 µM (inactive), the GI50 (SR) was 43.8 µM (inactive) and the GI50 (SNB-75) was 59.8 µM (inactive). For the same compound, the GI50 (CAKI-1) was 38.3 µM (inactive), the GI50 (786-0) was > 100 µM (inactive) and the GI50 (OVCAR-3) was 62.2 µM (inactive).
With `CN(C)CCNC(=O)c1cccc2c(Nc3ccc(S(=O)(=O)N=C(N)N)cc3)c3ccccc3nc12` the GI50 (SN12C) was 5.15 µM (inactive), the GI50 (UO-31) was 10 µM (inactive) and the GI50 (SNB-19) was 3.37 µM (inactive). The GI50 (NCI-H23) was 29 µM (inactive), the GI50 (SK-MEL-28) was 24.5 µM (inactive) and the GI50 (NCI-H522) was 3.97 µM (inactive). The GI50 (KM12) was 31.3 µM (inactive), the GI50 (SK-MEL-5) was 13.9 µM (inactive) and the GI50 (IGROV-1) was 7.1 µM (inactive). For the same compound, the GI50 (RXF 393) was 28 µM (inactive), the GI50 (M19-MEL) was 18.7 µM (inactive) and the GI50 (SF-539) was 11.3 µM (inactive). The GI50 (OVCAR-5) was 28.4 µM (inactive), the GI50 (CCRF-CEM) was 2.57 µM (inactive) and the GI50 (M14) was 30.8 µM (inactive). The GI50 (HT-29) was 16.3 µM (inactive), the GI50 (ACHN) was 22.1 µM (inactive) and the GI50 (HCT-15) was 99.1 µM. For the same compound, the GI50 (DMS-273) was 6.59 µM (inactive), the GI50 (LOX IMVI) was 5.94 µM (inactive) and the GI50 (A549) was 10.6 µM (inactive). The GI50 (OVCAR-4) was 13.5 µM (inactive), the GI50 (NCI-H460) was 3.17 µM (inactive) and the GI50 (HOP-62) was 11.3 µM (inactive). For the same compound, the GI50 (K562) was 11.9 µM (inactive), the GI50 (U-251) was 8.36 µM (inactive) and the GI50 (SK-MEL-2) was 19.2 µM (inactive). For the same compound, the GI50 (EKVX) was 20.6 µM (inactive), the GI50 (COLO 205) was 9.04 µM (inactive) and the GI50 (SF-268) was 7.24 µM (inactive). For the same compound, the GI50 (HCT-116) was 25.8 µM (inactive), the GI50 (UACC-62) was 10.3 µM (inactive) and the GI50 (OVCAR-8) was 8.79 µM (inactive). For the same compound, the GI50 (HL-60) was 0.684 µM (active), the GI50 (TK-10) was 75.9 µM (inactive) and the GI50 (XF498) was 19.3 µM (inactive). For the same compound, the GI50 (LXFL 529) was 7.89 µM (inactive), the GI50 (MOLT-4) was 2.03 µM (inactive) and the GI50 (KM-20L2) was 32.9 µM (inactive). For the same compound, the GI50 (SW-620) was 7.23 µM (inactive), the GI50 (SF-295) was 17.3 µM (inactive) and the GI50 (DLD-1) was 69.8 µM (inactive). The GI50 (DMS-114) was 2.34 µM (inactive), the GI50 (SR) was 2.61 µM (inactive) and the GI50 (SNB-75) was 15.1 µM (inactive). The GI50 (NCI-H226) was 2.19 µM (inactive) and the GI50 (786-0) was 18 µM (inactive).
